Results published in US8575382B2, “Low molecular weight pharmacological activity modulators” (“Ivy Pharm” LLC, priority 2009, dated 2013).
Read-outs that look alike come from different tables or passages of the source. Values belong to the compound of their own block, whether it stands above or below them.

What was measured:
[1] = tested on: A431 line human epidermoid carcinoma cells; assay: Proliferative activity and death of A431 cells (cell count, propidium iodide flow cytofluorimetry); type: cell-based; conditions: for Proportion of dead cells / Total cells: A431; for effect on the proliferative activity of A431 cells (in words): summary of Table 2
Description: The number of living and dead cells in a culture was determined after 24 and 48 hours.
A431 line human epidermoid carcinoma cells, obtained from the All-Russian Cell Culture Collection (Russian Academy of Sciences Institute of Cytology, St. Petersburg).
Cells are cultured in a CO2 incubator (New Brunswick Scientific) at +37° C. and with a CO2 content of 5%. Cells are grown in these conditions to a monolayer culture and are exposed to the action of the test compounds.
The DMEM medium (OOO PanEko, Moscow) with the addition of gentamicin K (80 mg/l), L-glutamine (300 mg/l) and fetal serum (PAA, Austria) to a final concentration of 10%, is used for culturing cells. Cells are transferred to a medium with a reduced serum content of 0.5% 24 hours before commencing an experiment.
The cells were then suspended by pipetting with an automatic pipette and were combined with the previously collected medium. Samples were centrifuged at room temperature for 5 min at 400 g, the supernatant was removed and the deposit was resuspended in pH 7.4 PBS phosphate-salt buffer.
Propidium iodide was added to a suspension of cells to a concentration of 50 μg/ml 5-10 min before measuring in a Bruker ACR 1000 flow cytofluorimeter. This stain is able to penetrate through a damaged cell membrane, and stained cells are dead.

[2] = tested on: A431 line human epidermoid carcinoma cells; assay: as above; type: cell-based
[3] = tested on: myocardium (30-minute LCA occlusion, 90-minute reperfusion)
Description: The experiments were performed on male Wistar rats weighing 200-300 g (RAMN Rappolovo Breeding Centre, St. Petersburg) and male C57B mice weighing 25-30 g (B&K, Sollentuna, Sweden). The animals were maintained in a 12/12-hour light regime and received standard feed and drinking water ad libitum. All the experiments were conducted in accordance with the “Handbook on the care and use of laboratory animals” (USA National Institute of Health publication No. 85-23) and “Handbook on the experimental (preclinical) study of new pharmacological substances”.
Initial anesthesia of rats was performed by intraperitoneal administration of etaminal sodium (Nembutal) in a single dose of 7 mg/100 g. The experiments were performed with artificial ventilation of the lungs AVL) via a tracheotomy (respiration rate—60/min, respiratory volume—3 ml/100 g of body weight). AVL was carried out with room air using a Vita-1 unit (PO Krasnogvardeyets, St. Petersburg). A breathing valve for small laboratory animals was used, allowing the dead space volume of the apparatus to be reduced and limiting accumulation of carbon dioxide in the flow system of the apparatus. Arterial pressure (AP) was measured during the experiment using a miniature pressure sensor (Baxter, USA) via a heparinized catheter inserted into the left common carotid artery. A median skin incision was made in the neck, with subsequent blunt separation of the tissues with forceps, for access to the trachea and carotid artery. An electrocardiogram (ECG) was recorded in the course of the experiment (Kardiotekhnika-EKG-8, ZAO Inkart, St. Petersburg) with standard leads, using subcutaneous needle electrodes 2 mm in diameter and 25 mm long. At the start of the experiment, the left femoral vein was catheterized for intravenous infusion of Nembutal with the object of maintaining anesthesia and also for the administration of test preparations and, at the end of the experiment, Evans blue.
A previously described method was used to model ischemia-reperfusion of the myocardium. The heart was accessed via a thoracotomy in the fourth intercostal on the left. An L-shaped skin incision was made first, then the large and small pectoral muscles were separated layer by layer with an electrocoagulator, after which the intercostal muscles were separated and the pleura was exposed. The pericardium was then opened by a blunt method and, using the medial edge of the auricula of the left atrium on the left, and the cone of the pulmonary artery on the right, for guidance the location of the common trunk of the LCA was determined, and a polypropylene ligature for this was placed with the aid of an atraumatic needle (6-O, Cardiopoint, CV-301). Removal of the heart from the wound was avoided since, apart from causing mechanical trauma to the heart, such a manipulation inevitably leads to serious disturbances to the hemodynamics.
An occluder was formed in order to create reversible ischemia of the myocardium: the ends of the ligature surrounding the coronary artery were led into the interior of a polyethylene tube 1 mm in diameter and 5-6 cm long (PE 40), after which occlusion of the left coronary artery (LCA) was achieved by moving the tube towards the heart, and reperfusion by moving it in the opposite direction. A clamp was applied to the tube with the object of maintaining occlusion for 30 minutes. The animals were located on a thermostatted operating table during the experiment; during this time, the body temperature of the animal was maintained in the range 37.5±0.5° C.
30-minute occlusion of the LCA with subsequent 90-minute reperfusion was used to create irreversible ischemic-reperfusion damage to the myocardium, which is a test for assessing cardioprotective effects.

[4] = Solubility of the crystalline coordination compound; type: physicochemical
Description: [drawing 10] […] (1.811 mmole) of AgNO3, dissolved in the minimum amount of water, are added to a suspension of 300 mg (0.904 mmole) of Pd(2,2′-dipy)Cl2 in 15 ml of water. The mixture is acidified with 0.5 ml of concentrated HNO3, homogenized in an ultrasound bath for 15 min and filtered. […] (0.905 mmole) of L-cysteine (cys), dissolved in the minimum amount of water, are added to the filtrate. The reaction mixture is evaporated in air at room temperature. […] Yield 70-75%.

[5] = AG1478 0.75 μg/ml 15 min before EGF 200 ng/ml, 24 hours
[6] = AG1478 0.75 μg/ml 15 min before EGF 200 ng/ml, 48 hours
[7] = AG1478 1.0 μg/ml 15 min before EGF 200 ng/ml, 24 hours
[8] = AG1478 1.0 μg/ml 15 min before EGF 200 ng/ml, 48 hours
[9] = AG1478 2.5 μg/ml 15 min before EGF 200 ng/ml, 24 hours
[10] = AG1478 2.5 μg/ml 15 min before EGF 200 ng/ml, 48 hours
[11] = AG1478 5.0 μg/ml 15 min before EGF 200 ng/ml, 24 hours
[12] = AG1478 5.0 μg/ml 15 min before EGF 200 ng/ml, 48 hours
[13] = Table 2, age of culture 24 hours, cysteine […], C—Pd […], C—Pd:C […], EGF 200 ng/ml
[14] = Table 2, age of culture 48 hours, cysteine […], C—Pd […], C—Pd:C […], EGF 200 ng/ml
[15] = Table 2, age of culture 0 hours, cysteine […], C—Pd […], C—Pd:C […], EGF 200 ng/ml

Compound: COc1cc2ncnc(Nc3cccc(Cl)c3)c2cc1OC [AG1478, tyrphostin AG 1478]
Proportion of dead cells [1, 5]: 20%
Total cells [1, 5]: 48100 mL⁻¹
Proportion of dead cells [1, 6]: 25%
Total cells [1, 6]: 70800 mL⁻¹
Total cells ([1]; AG1478 1.0 μg/ml 15 min before EGF 200 ng/ml, 0 hours): 10000 mL⁻¹
Proportion of dead cells [1, 7]: 23%
Total cells [1, 7]: 47100 mL⁻¹
Proportion of dead cells [1, 8]: 23%
Total cells [1, 8]: 65700 mL⁻¹
Total cells ([1]; AG1478 2.5 μg/ml 15 min before EGF 200 ng/ml, 0 hours): 10000 mL⁻¹
Proportion of dead cells [1, 9]: 27%
Total cells [1, 9]: 39400 mL⁻¹
Proportion of dead cells [1, 10]: 30%
Total cells [1, 10]: 61100 mL⁻¹
Total cells ([1]; AG1478 5.0 μg/ml 15 min before EGF 200 ng/ml, 0 hours): 10000 mL⁻¹
Proportion of dead cells [1, 11]: 29%
Total cells [1, 11]: 6400 mL⁻¹
Proportion of dead cells [1, 12]: 41%
Total cells [1, 12]: 2100 mL⁻¹
Total cells ([2]; AG1478 0.75 μg/ml 15 min before EGF 200 ng/ml, 0 hours): 10000 mL⁻¹

Compound: N[C@@H](CS)C(=O)O [Cysteine, cysteine]
Proportion of dead cells [1, 13]: 11%
Total cells [1, 13]: 14700 mL⁻¹
Proportion of dead cells [1, 14]: 22%
Total cells [1, 14]: 23500 mL⁻¹
effect on the proliferative activity of A431 cells (in words) [1]: no effect on stimulation of proliferative activity
Total cells [2, 15]: 10000 mL⁻¹

Compound: Nc1ncnc2c1ncn2[C@@H]1O[C@H](CO)[C@@H](O)[C@H]1O [adenosine]
disturbances of the heart rhythm or stopping of the heart ([3]; rat, in vivo): No disturbances of the heart rhythm or stopping of the heart
size of the infarct zone, % of the size of the anatomical risk zone ([3]; rats, adenosine 0.1 μmol/kg i.v. infusion 30 minutes before coronary occlusion (group 1)): 64.7±3.47%
size of the infarct zone, % of the size of the anatomical risk zone ([3]; rats, adenosine 0.25 μmol/kg i.v. 30 minutes before occlusion (group 2)): 63.1±4.31%
size of the infarct zone, % of the size of the anatomical risk zone ([3]; rats, adenosine 0.5 μmol/kg i.v. 30 minutes before occlusion (group 3)): 62.7±4.11%
size of the infarct zone, % of the size of the anatomical risk zone ([3]; rats, adenosine 1.0 μmol/kg i.v. 30 minutes before occlusion (group 4)): 65.1±4.84%
size of the infarct zone, % of the size of the anatomical risk zone ([3]; rats, adenosine 2.5 μmol/kg i.v. 30 minutes before occlusion (group 5)): 60.9±5.10%
size of the infarct zone, % of the size of the anatomical risk zone ([3]; rats, adenosine 5.0 μmol/kg i.v. 30 minutes before occlusion (group 6)): 35.9±3.59%
size of the infarct zone, % of the size of the anatomical risk zone ([3]; rats, adenosine 10.0 μmol/kg i.v. 30 minutes before occlusion (group 7)): 32.7±3.21%
size of the infarct zone, % of the size of the anatomical risk zone ([3]; rats, adenosine 25.0 μmol/kg i.v. 30 minutes before occlusion (group 8)): 28.2±3.43%
size of the infarct zone, % of the size of the anatomical risk zone ([3]; rats, adenosine 50.0 μmol/kg i.v. 30 minutes before occlusion (group 9)): 26.5±2.87%
reduction of the size of the infarct zone compared with the control, factor ([3]; rats, adenosine groups 6-9 (5.0-50.0 μmol/kg), control 63.8±3.32%): 1.5-2.5

solubility ([4]; in acetone): virtually insoluble
solubility ([4]; in dichloromethane): virtually insoluble
solubility ([4]; in ethanol): less soluble
solubility ([4]; in water): readily soluble
Compound: [Pd2(μ-S-L-Cys)(μ-S-L-CysH)(2,2′-dipy)2](NO3)3.4.5H2O [C—Pd]
Proportion of dead cells [1, 13]: 8%
Total cells [1, 13]: 32300 mL⁻¹
Proportion of dead cells [1, 14]: 12%
Total cells [1, 14]: 36100 mL⁻¹
effect on the proliferative activity of A431 cells (in words) [1]: stimulates the proliferative activity
Total cells [2, 15]: 10000 mL⁻¹
